Results on 23 molecules are retold here after patent US20240391948A1, “NOVEL COMPOUND THAT INHIBITS TNF-ALPHA GENERATION AND INFLAMMASOME ACTIVITY AND PREPARATION METHOD THEREFOR” (SHAPERON INC., priority 2021, published 2024).

What all share (assay type): cell-based
The test system of assay [1] is J774A.1 (Mouse BALB/c monocyte macrophage cell line) cells. In words: LPS-induced TNF-α secretion inhibition in J774A.1 cells. Particulars: J774.A1, 1 μM compound, graded compared to taurodeoxycholic acid (positive control), read-out: TNF-α production inhibition grade. Put shortly: (§1)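 Mouse J774A.1 macrophages treated with 1 μM compound; TNF-α secretion measured after LPS stimulation and IL-1β secretion after LPS+ATP stimulation. Suppression graded against taurodeoxycholic acid: A over 100%, B 50–100%, C 20–50%, D under 20%.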

Assay [2] deals with U937 cells (human monocytic cell line). The assay is described as follows: Pam2CSK4-induced TNF-α secretion inhibition in PMA-differentiated U937 cells. As to conditions: U-937, U937 cells differentiated with PMA, read-out: TNF-α production inhibition grade (IC50). Put shortly:
(§2)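 U937 cells were PMA-differentiated into macrophages and treated with compound before inflammatory stimulus. TNF-α secretion was induced with Pam2CSK4 and IL-1β secretion with BzATP. IC50 (μM) values are graded A-D, with separate cut-offs per cytokine.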

Assay [3] shares this test system. The assay is described as follows: BzATP-induced IL-1β secretion inhibition in PMA-differentiated U937 cells. Particulars: U-937, U937 cells differentiated with PMA, read-out: IL-1β production inhibition grade (IC50). Put shortly:
as §2

In assay [4] the test system is J774A.1 (Mouse BALB/c monocyte macrophage cell line) cells. In words: LPS+ATP-induced IL-1β secretion inhibition in J774A.1 cells. As to conditions: J774.A1, 1 μM compound, graded compared to taurodeoxycholic acid (positive control), read-out: IL-1β production inhibition grade. Put shortly:
as §1

By inhibition is commonly meant the change of the read-out against control, counted positive when it falls. Usually IC50 stands for the concentration that inhibits the measured activity by half. As to `CC[C@H]1[C@@H](O)[C@@H]2[C@H](CC[C@]3(C)[C@@H]([C@H](C)CCC(=O)N[C@@H](CC(C)C)CS(=O)(=O)O)CC[C@@H]23)[C@@]2(C)CC[C@@H](O)C[C@@H]12` [NC40030], the inhibition at 1 µM in assay [1] and in assay [4] was < 20% in each case. In addition, the half-maximal inhibitory concentration (IC50) is 1000 to 2000 nM in assay [2] and ≥ 200 nM in assay [3].
For the molecule `CC[C@H]1[C@@H](O)[C@@H]2[C@H](CC[C@]3(C)[C@@H]([C@H](C)CCC(=O)N[C@H](CC(C)C)CS(=O)(=O)O)CC[C@@H]23)[C@@]2(C)CC[C@@H](O)C[C@@H]12` [NC40031], the inhibition at 1 µM in assay [1] and in assay [4] was < 20% in each case. Moreover, the IC50 in assay [2] is 1000 to 2000 nM; in assay [3], ≥ 200 nM.
Regarding `CC[C@H]1[C@@H](O)[C@@H]2[C@H](CC[C@]3(C)[C@@H]([C@H](C)CCC(=O)NC4(CS(=O)(=O)O)CC4)CC[C@@H]23)[C@@]2(C)CC[C@@H](O)C[C@@H]12` [NC40032], the inhibition at 1 µM in assay [1] and in assay [4] was < 20% throughout. In addition, the figures for the IC50 in assay [2] and in assay [3] were 1000 to 2000 nM and ≥ 200 nM, respectively.
Consider `CC[C@H]1[C@@H](O)[C@@H]2[C@H](CC[C@]3(C)[C@@H]([C@H](C)CCC(=O)N4CC[C@H](S(=O)(=O)O)C4)CC[C@@H]23)[C@@]2(C)CC[C@@H](O)C[C@@H]12` [NC40033], for which the inhibition at 1 µM in assay [1] and in assay [4] was > 100% in each case. The half-inhibitory concentration (IC50) is < 500 nM in assay [2] and < 50 nM in assay [3].
With `CC[C@H]1[C@@H](O)[C@@H]2[C@H](CC[C@]3(C)[C@@H]([C@H](C)CCC(=O)N4CC[C@@H](S(=O)(=O)O)C4)CC[C@@H]23)[C@@]2(C)CC[C@@H](O)C[C@@H]12` [NC40034], the figures for the inhibition at 1 µM in assay [1] and in assay [4] were 20 to 50% and > 100%, respectively. Moreover, the IC50 in assay [2] is < 500 nM; in assay [3] it was < 50 nM.
For `CC[C@H]1[C@@H](O)[C@@H]2[C@H](CC[C@]3(C)[C@@H]([C@H](C)CCC(=O)N(CCN(C)C)CCS(=O)(=O)O)CC[C@@H]23)[C@@]2(C)CC[C@@H](O)C[C@@H]12` [NC40035], in that order: < 20%, > 100%, < 500 nM and 50 to 100 nM.
Turning to `CC[C@H]1[C@@H](O)[C@@H]2[C@H](CC[C@]3(C)[C@@H]([C@H](C)CCC(=O)N(CCS(=O)(=O)O)Cc4cccnc4)CC[C@@H]23)[C@@]2(C)CC[C@@H](O)C[C@@H]12` [NC40036], the inhibition at 1 µM was < 20% in assay [1] and 50 to 100% in assay [4]. Also, the 50% inhibitory concentration (IC50) in assay [2] fell in the range of 1000 to 2000 nM; in assay [3], 50 to 100 nM.
Consider `CC[C@H]1[C@@H](O)[C@@H]2[C@H](CC[C@]3(C)[C@@H]([C@H](C)CCC(=O)N(CCS(=O)(=O)O)c4ccccc4)CC[C@@H]23)[C@@]2(C)CC[C@@H](O)C[C@@H]12` [NC40037], for which the values for the inhibition at 1 µM in assay [1] and in assay [4] were < 20% and 20 to 50%, respectively. Further, the IC50 in assay [2] fell in the range of 500 to 1000 nM; in assay [3] it was 50 to 100 nM.
For `CC[C@H]1[C@@H](O)[C@@H]2[C@H](C[C@H](O)[C@]3(C)[C@@H]([C@H](C)CCC(=O)N(C)CCS(=O)(=O)O)CC[C@@H]23)[C@@]2(C)CC[C@@H](O)C[C@@H]12` [NC50004] the same measures were < 20%, < 20%, ≥ 2000 nM and 100 to 200 nM.
For `CC[C@H]1[C@@H](O)[C@@H]2[C@H](C[C@H](O)[C@]3(C)[C@@H]([C@H](C)CCC(=O)N(CCO)CCS(=O)(=O)O)CC[C@@H]23)[C@@]2(C)CC[C@@H](O)C[C@@H]12` [NC50006] the same measures were < 20%, < 20%, ≥ 2000 nM and < 50 nM.
For `CC[C@H]1[C@@H](O)[C@@H]2[C@H](C[C@H](O)[C@]3(C)[C@@H]([C@H](C)CCC(=O)N(CCS(=O)(=O)O)C(C)C)CC[C@@H]23)[C@@]2(C)CC[C@@H](O)C[C@@H]12` [NC50007], in that order: < 20%, > 100%, 1000 to 2000 nM and 50 to 100 nM.
With `CC[C@H]1[C@@H](O)[C@@H]2[C@H](C[C@H](O)[C@]3(C)[C@@H]([C@H](C)CCC(=O)N(CCS(=O)(=O)O)C4CCOCC4)CC[C@@H]23)[C@@]2(C)CC[C@@H](O)C[C@@H]12` [NC50008], the inhibition at 1 µM was < 20% in assay [1] and > 100% in assay [4]. In addition, the IC50 in assay [2] was 500 to 1000 nM; in assay [3], < 50 nM.
For `CC[C@H]1[C@@H](O)[C@@H]2[C@H](C[C@H](O)[C@]3(C)[C@@H]([C@H](C)CCC(=O)N4CCC[C@@H](S(=O)(=O)O)C4)CC[C@@H]23)[C@@]2(C)CC[C@@H](O)C[C@@H]12` [NC50010] the same measures were < 20%, > 100%, ≥ 2000 nM and 100 to 200 nM.
As to `CC[C@H]1[C@@H](O)[C@@H]2[C@H](C[C@H](O)[C@]3(C)[C@@H]([C@H](C)CCC(=O)N4CC(S(=O)(=O)O)C4)CC[C@@H]23)[C@@]2(C)CC[C@@H](O)C[C@@H]12` [NC50012], the inhibition at 1 µM in assay [1] was < 20%; in assay [4] it was > 100%. Moreover, the half-maximal inhibitory concentration (IC50) in assay [2] is 1000 to 2000 nM; in assay [3], < 50 nM.
For `CC[C@H]1[C@@H](O)[C@@H]2[C@H](C[C@H](O)[C@]3(C)[C@@H]([C@H](C)CCC(=O)NC(C)(C)CS(=O)(=O)O)CC[C@@H]23)[C@@]2(C)CC[C@@H](O)C[C@@H]12` [NC50013], in that order: < 20%, > 100%, 1000 to 2000 nM and < 50 nM.
For `CC[C@H]1[C@@H](O)[C@@H]2[C@H](C[C@H](O)[C@]3(C)[C@@H]([C@H](C)CCC(=O)N[C@H](Cc4ccccc4)CS(=O)(=O)O)CC[C@@H]23)[C@@]2(C)CC[C@@H](O)C[C@@H]12` [NC50015] the same measures were < 20%, > 100%, 1000 to 2000 nM and 50 to 100 nM.
For `CC[C@H]1[C@@H](O)[C@@H]2[C@H](C[C@H](O)[C@]3(C)[C@@H]([C@H](C)CCC(=O)N[C@H](CS(=O)(=O)O)C(C)C)CC[C@@H]23)[C@@]2(C)CC[C@@H](O)C[C@@H]12` [NC50016] the same measures were < 20%, > 100%, 500 to 1000 nM and 50 to 100 nM.
Take `CC[C@H]1[C@@H](O)[C@@H]2[C@H](C[C@H](O)[C@]3(C)[C@@H]([C@H](C)CCC(=O)N[C@H](CS(=O)(=O)O)c4ccccc4)CC[C@@H]23)[C@@]2(C)CC[C@@H](O)C[C@@H]12` [NC50018]: the inhibition at 1 µM was < 20% in assay [1] and 50 to 100% in assay [4]. Besides, the IC50 is ≥ 2000 nM in assay [2] and 50 to 100 nM in assay [3].
On to `CC[C@H]1[C@@H](O)[C@@H]2[C@H](C[C@H](O)[C@]3(C)[C@@H]([C@H](C)CCC(=O)N[C@@H](CS(=O)(=O)O)c4ccccc4)CC[C@@H]23)[C@@]2(C)CC[C@@H](O)C[C@@H]12` [NC50019], for which the inhibition at 1 µM was < 20% in assay [1] and 50 to 100% in assay [4]. Further, the IC50 in assay [2] was 1000 to 2000 nM; in assay [3], ≥ 200 nM.
For `CC[C@H]1[C@@H](O)[C@@H]2[C@H](C[C@H](O)[C@]3(C)[C@@H]([C@H](C)CCC(=O)N4CCC[C@H]4CS(=O)(=O)O)CC[C@@H]23)[C@@]2(C)CC[C@@H](O)C[C@@H]12` [NC50021] the same measures were < 20%, 20 to 50%, 500 to 1000 nM and ≥ 200 nM.
`CC[C@H]1[C@@H](O)[C@@H]2[C@H](C[C@H](O)[C@]3(C)[C@@H]([C@H](C)CCC(=O)N[C@@H](CO)CS(=O)(=O)O)CC[C@@H]23)[C@@]2(C)CC[C@@H](O)C[C@@H]12` [NC50024]: the inhibition at 1 µM in assay [1] was < 20%; in assay [4], 20 to 50%. The results for the IC50 in assay [2] and in assay [3] were ≥ 2000 nM and ≥ 200 nM, respectively.
For `CC[C@H]1[C@@H](O)[C@@H]2[C@H](C[C@H](O)[C@]3(C)[C@@H]([C@H](C)CCC(=O)N[C@H]4CCCC[C@H]4S(=O)(=O)O)CC[C@@H]23)[C@@]2(C)CC[C@@H](O)C[C@@H]12` [NC50027], in that order: < 20%, 20 to 50%, 1000 to 2000 nM and ≥ 200 nM.
For `CC[C@H]1[C@@H](O)[C@@H]2[C@H](C[C@H](O)[C@]3(C)[C@@H]([C@H](C)CCC(=O)N[C@@H](C)CS(=O)(=O)O)CC[C@@H]23)[C@@]2(C)CC[C@@H](O)C[C@@H]12` [NC50028] the same measures were < 20%, 50 to 100%, 1000 to 2000 nM and ≥ 200 nM.
